Data from patent US20100298141A1, “SUBSTITUTED PYRIDINE N-OXIDE HERBICIDES” (E. I. DU PONT DE NEMOURS AND COMPANY, priority 2007, published 2010).

Legend:
lambsquarters = assay: Test C pre-/postemergence test; format: in vivo, Chenopodium album; conditions: for Plant response rating, Lambsquarters: scale 0 to 100, 0 no effect, 100 complete control
Outline: (§1)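 Test chemicals were formulated with surfactant in a non-phytotoxic solvent and sprayed both on freshly planted seeds (preemergence) and on 1- to 4-leaf plants of 2–18 cm (postemergence). Flooded-paddy pots received compound directly into 3 cm of standing water, maintained for the test.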

velvetleaf [1] = assay: Test A pre-/postemergence greenhouse test; format: in vivo, Abutilon theophrasti; conditions: for Velvetleaf plant response rating: 0 to 100 scale
Outline: (§2)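 Each test compound, dissolved in a non-phytotoxic solvent mixture with surfactant, was sprayed directly onto seeded soil (loam/sand blend) and, at the same moment, onto seedlings carrying one to two leaves. Around ten greenhouse days later, plants were rated visually for injury relative to untreated controls.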

velvetleaf [2] = assay: Test C pre-/postemergence test; format: in vivo, Abutilon theophrasti; conditions: for Plant response rating, Velvetleaf: scale 0 to 100, 0 no effect, 100 complete control
Outline: as §1

giant foxtail [3] = assay: Test A pre-/postemergence greenhouse test; format: in vivo, Setaria faberi; conditions: for Foxtail, Giant plant response rating: 0 to 100 scale
Outline: as §2

redroot pigweed = assay: Test A pre-/postemergence greenhouse test; format: in vivo, Amaranthus retroflexus; conditions: for Pigweed plant response rating: 0 to 100 scale
Outline: as §2

eastern black nightshade = assay: Test C pre-/postemergence test; format: in vivo, Solanum ptycanthum
Text: Seeds of plant species selected from blackgrass (Alopecurus myosuroides), downy brome (Bromus tectorum), green foxtail (Setaria viridis), Italian ryegrass (Lolium multiflorum), wheat (Triticum aestivum), wild oat (Avena fatua), catchweed bedstraw (Galium aparine), Russian thistle (Salsola kali), […] (Cynodon dactylon), Surinam grass (Brachiaria decumbens), cocklebur (Xanthium strumarium), corn (Zea mays), crabgrass (Digitaria sanguinalis), woolly cupgrass (Eriochloa villosa), giant foxtail (Setaria faberii), Goosegrass (Eleusin indica), johnsongrass (Sorghum halepense), kochia (Kochia scoparia), lambsquarters (Chenopodium album), morningglory (Ipomoea coccinea), eastern black nightshade (Solanum ptycanthum), yellow nutsedge (Cyperus esculentus), pigweed (Amaranthus retroflexus), common ragweed (Ambrosia elation), soybean (Glycine max), common (oilseed) sunflower (Helianthus annuus), and velvetleaf (Abutilon theophrasti) were planted and treated preemergence with test chemicals formulated in a non-phytotoxic solvent mixture which included a surfactant. At the same time, plants selected from these crop and weed species and also winter barley (Hordeum vulgare), canarygrass (Phalaris minor), and chickweed (Stellaria media) were treated with postemergence applications of some of the test chemicals formulated in the same manner. Plants ranged in height from 2 to 18 cm (1- to 4-leaf stage) for postemergence treatments. […] At time of treatment, test pots were flooded to 3 cm above the soil surface, treated by application of test compounds directly to the paddy water, and then maintained at that water depth for the duration of the test. […] A dash (-) response means no test result.

corn = assay: Test A pre-/postemergence greenhouse test; format: in vivo, Zea mays; conditions: for Corn plant response rating: 0 to 100 scale
Outline: as §2

johnsongrass = assay: Test C pre-/postemergence test; format: in vivo, Sorghum halepense; conditions: for Plant response rating, Johnsongrass: scale 0 to 100, 0 no effect, 100 complete control
Outline: as §1

Goosegrass = assay: Test C pre-/postemergence test; format: in vivo, Eleusin indica; conditions: for Plant response rating, Goosegrass: scale 0 to 100, 0 no effect, 100 complete control
Outline: as §1

Surinam grass = assay: Test C pre-/postemergence test; format: in vivo, Brachiaria decumbens; conditions: for Surinam Grass plant response rating: preemergence, scale 0 (no effect) to 100 (complete control); for Plant response rating, Surinam Grass: scale 0 to 100, 0 no effect, 100 complete control
Outline: as §1

wild oat = assay: Test C pre-/postemergence test; format: in vivo, Avena fatua; conditions: Postemergence; for Plant response rating, Oat, Wild: scale 0 to 100, 0 no effect, 100 complete control
Outline: as §1

wheat = assay: Test A pre-/postemergence greenhouse test; format: in vivo, Triticum aestivum; conditions: for Wheat plant response rating: 0 to 100 scale
Outline: as §2

giant foxtail [4] = assay: Test C pre-/postemergence test; format: in vivo, Setaria faberii; conditions: for Plant response rating, Foxtail, Giant: scale 0 to 100, 0 no effect, 100 complete control
Outline: as §1

common ragweed = assay: Test C pre-/postemergence test; format: in vivo, Ambrosia elation; conditions: for Plant response rating, Ragweed: scale 0 to 100, 0 no effect, 100 complete control
Outline: as §1

bermudagrass = assay: Test C pre-/postemergence test; format: in vivo, Cynodon dactylon; conditions: for Plant response rating, Bermudagrass: scale 0 to 100, 0 no effect, 100 complete control
Outline: as §1

[5] = 62 g ai/ha, preemergence, scale 0 (no effect) to 100 (complete control)
[6] = Postemergence, 125 g ai/ha, 0 is no effect, 100 is complete control
[7] = Postemergence, 500 g ai/ha, 0 is no effect, 100 is complete control
[8] = Preemergence, 125 g ai/ha, 0 no effect, 100 complete control
[9] = Preemergence, 500 g ai/ha, 0 to 100 scale where 0 is no effect and 100 is complete control
[10] = 31 g ai/ha, Preemergence, scale 0 to 100
[11] = preemergence, 125 g ai/ha, scale 0 (no effect) to 100 (complete control)

## Cn1nc(C(F)(F)F)c(C[S+]([O-])c2ccc(Cl)c[n+]2[O-])c1OC(F)F (stereo not drawn) [Compound 6]
lambsquarters; [5]
  Lambsquarters plant response rating: 0
lambsquarters; Postemergence, 31 g ai/ha
  Plant response rating (0 to 100), Lambsquarters: 0
lambsquarters; Postemergence, 62 g ai/ha
  Plant response rating, Lambsquarters: 10
lambsquarters; Postemergence, 125 g ai/ha
  Plant response rating, Lambsquarters: 10
lambsquarters; Postemergence, 250 g ai/ha
  Plant response rating, Lambsquarters: 10
lambsquarters; Preemergence, 250 g ai/ha
  Plant response rating (0 to 100), Lambsquarters: 100
Velvetleaf [1]; [6]
  Velvetleaf plant response rating: 50
Velvetleaf [1]; [7]
  Velvetleaf plant response rating: 80
Velvetleaf [1]; [8]
  Velvetleaf plant response rating: 90
Velvetleaf [1]; [9]
  Plant response rating, Velvetleaf: 100
Velvetleaf [2]; [5]
  Velvetleaf plant response rating: 0
Velvetleaf [2]; Postemergence, 31 g ai/ha
  Plant response rating (0 to 100), Velvetleaf: 0
Velvetleaf [2]; Postemergence, 62 g ai/ha
  Plant response rating (0 to 100), Velvetleaf: 10
Velvetleaf [2]; Postemergence, 125 g ai/ha
  Plant response rating, Velvetleaf: 30
Velvetleaf [2]; Postemergence, 250 g ai/ha
  Plant response rating, Velvetleaf: 50
Velvetleaf [2]; Preemergence, 250 g ai/ha
  Plant response rating (0 to 100), Velvetleaf: 40
Giant foxtail [3]; [6]
  Foxtail, Giant plant response rating: 70
Giant foxtail [3]; [7]
  Foxtail, Giant plant response rating: 90
Giant foxtail [3]; [8]
  Foxtail, Giant plant response rating: 100
Giant foxtail [3]; [9]
  Plant response rating, Foxtail, Giant: 100
Redroot pigweed; [6]
  Pigweed plant response rating: 100
Redroot pigweed; [7]
  Pigweed plant response rating: 100
Redroot pigweed; [8]
  Pigweed plant response rating: 100
Redroot pigweed; [9]
  Plant response rating, Pigweed: 100
Eastern black nightshade; [5]
  Nightshade plant response rating: 98
Eastern black nightshade; Preemergence, 250 g ai/ha
  Plant response rating (0 to 100), Nightshade: 100
corn; [6]
  Corn plant response rating: 60
corn; [7]
  Corn plant response rating: 80
corn; [8]
  Corn plant response rating: 80
corn; [9]
  Plant response rating, Corn: 90
johnsongrass; [10]
  Johnsongrass plant response rating: 65
johnsongrass; [5]
  Johnsongrass plant response rating: 98
johnsongrass; Postemergence, 31 g ai/ha
  Plant response rating (0 to 100), Johnsongrass: 0
johnsongrass; Postemergence, 62 g ai/ha
  Plant response rating, Johnsongrass: 0
johnsongrass; Postemergence, 125 g ai/ha
  Plant response rating, Johnsongrass: 30
johnsongrass; Postemergence, 250 g ai/ha
  Plant response rating, Johnsongrass: 35
johnsongrass; Preemergence, 250 g ai/ha
  Plant response rating (0 to 100), Johnsongrass: 100
johnsongrass; [11]
  Johnsongrass plant response rating: 98
Goosegrass; [10]
  Goosegrass plant response rating: 98
Goosegrass; [5]
  Goosegrass plant response rating: 100
Goosegrass; Postemergence, 31 g ai/ha
  Plant response rating (0 to 100), Goosegrass: 0
Goosegrass; Postemergence, 62 g ai/ha
  Plant response rating, Goosegrass: 0
Goosegrass; Postemergence, 125 g ai/ha
  Plant response rating, Goosegrass: 20
Goosegrass; Postemergence, 250 g ai/ha
  Plant response rating, Goosegrass: 45
Goosegrass; Preemergence, 250 g ai/ha
  Plant response rating (0 to 100), Goosegrass: 100
Goosegrass; [11]
  Goosegrass plant response rating: 100
Surinam grass; 62 g ai/ha
  Surinam Grass plant response rating: 98
Surinam grass; Postemergence, 31 g ai/ha
  Plant response rating (0 to 100), Surinam Grass: 0
Surinam grass; Postemergence, 62 g ai/ha
  Plant response rating (0 to 100), Surinam Grass: 0
Surinam grass; Postemergence, 125 g ai/ha
  Plant response rating, Surinam Grass: 30
Surinam grass; Postemergence, 250 g ai/ha
  Plant response rating, Surinam Grass: 30
Surinam grass; Preemergence, 250 g ai/ha
  Plant response rating (0 to 100), Surinam Grass: 100
Surinam grass; 125 g ai/ha
  Surinam Grass plant response rating: 100
Wild oat; 31 g ai/ha
  Plant response rating (0 to 100), Oat, Wild: 20
Wild oat; 62 g ai/ha
  Plant response rating, Oat, Wild: 50
Wild oat; 250 g ai/ha
  Plant response rating, Oat, Wild: 60
wheat; [6]
  Wheat plant response rating: 30
wheat; [7]
  Wheat plant response rating: 70
wheat; [8]
  Wheat plant response rating: 90
wheat; [9]
  Plant response rating, Wheat: 90
Giant foxtail [4]; [10]
  Foxtail, Giant plant response rating: 50
Giant foxtail [4]; [5]
  Foxtail, Giant plant response rating: 95
Giant foxtail [4]; Postemergence, 31 g ai/ha
  Plant response rating (0 to 100), Foxtail, Giant: 0
Giant foxtail [4]; Postemergence, 62 g ai/ha
  Plant response rating, Foxtail, Giant: 30
Giant foxtail [4]; Postemergence, 125 g ai/ha
  Plant response rating, Foxtail, Giant: 60
Giant foxtail [4]; Postemergence, 250 g ai/ha
  Plant response rating, Foxtail, Giant: 70
Giant foxtail [4]; Preemergence, 250 g ai/ha
  Plant response rating (0 to 100), Foxtail, Giant: 100
Giant foxtail [4]; [11]
  Foxtail, Giant plant response rating: 98
Common ragweed; [10]
  Ragweed plant response rating: 0
Common ragweed; [5]
  Ragweed plant response rating: 0
Common ragweed; Postemergence, 31 g ai/ha
  Plant response rating (0 to 100), Ragweed: 0
Common ragweed; Postemergence, 62 g ai/ha
  Plant response rating (0 to 100), Ragweed: 0
Common ragweed; Postemergence, 125 g ai/ha
  Plant response rating, Ragweed: 10
Common ragweed; Postemergence, 250 g ai/ha
  Plant response rating, Ragweed: 50
Common ragweed; Preemergence, 250 g ai/ha
  Plant response rating (0 to 100), Ragweed: 40
Common ragweed; [11]
  Ragweed plant response rating: 0
bermudagrass; [10]
  Bermudagrass plant response rating: 98
bermudagrass; [5]
  Bermudagrass plant response rating: 98
bermudagrass; Postemergence, 31 g ai/ha
  Plant response rating (0 to 100), Bermudagrass: 0
bermudagrass; Postemergence, 62 g ai/ha
  Plant response rating, Bermudagrass: 10
bermudagrass; Postemergence, 125 g ai/ha
  Plant response rating, Bermudagrass: 50
bermudagrass; Postemergence, 250 g ai/ha
  Plant response rating, Bermudagrass: 80
bermudagrass; Preemergence, 250 g ai/ha
  Plant response rating (0 to 100), Bermudagrass: 100
bermudagrass; [11]
  Bermudagrass plant response rating: 100
